Assay results: paper PMC9450471 (Computational Biology and Chemistry, 2022)

Experiment: in vitro
Settings: African green monkey

Row | SMILES | CC50
1 | O=c1[nH]cnc2c([C@@H]3N[C@H](CO)[C@@H](O)[C@H]3O)c[nH]c12 [Forodesine] | > 100 µM
2 | CC(C)Nc1nc2cc(Cl)c(Cl)cc2n1[C@H]1O[C@@H](CO)[C@H](O)[C@@H]1O [Maribavir] | > 100 µM
3 | CC(C)C(=O)OC[C@H]1O[C@@H](n2ccc(NO)nc2=O)[C@H](O)[C@@H]1O [Molnupiravir] | > 100 µM
4 | COc1nc(N)nc2c1ncn2[C@@H]1O[C@H](CO)[C@@H](O)[C@@H]1O [Nelarabine] | > 100 µM
5 | CCC(CC)COC(=O)[C@H](C)N[P@](=O)(OC[C@H]1O[C@@](C#N)(c2ccc3c(N)ncnn23)[C@H](O)[C@@H]1O)Oc1ccccc1 [Remdesivir] | > 100 µM
6 | CC(C)=CCNc1ncnc2c1ncn2[C@@H]1O[C@H](CO)[C@@H](O)[C@H]1O [Riboprine, N ^6-(2-Isopentenyl)adenosine] | > 100 µM
7 | OC[C@H]1O[C@@H](n2cnc3c(N[C@@H]4CCOC4)ncnc32)[C@H](O)[C@@H]1O [Tecadenoson] | > 100 µM
8 | Nc1ncnc2c1ncn2[C@@H]1O[C@H](CO)[C@@H](O)[C@@H]1O [Vidarabine, Arabinosyladenine] | > 100 µM
